This note sets out measurements from patent US8563559B2 (Rigel Pharmaceuticals, Inc., priority 2006, dated 2013).

The first experiment deals with T1, Axl (Homo sapiens, UniProt P30530).
T1 construct: endogenous in cells; host or cells: HeLa
T1 sequence (P30530 26-894): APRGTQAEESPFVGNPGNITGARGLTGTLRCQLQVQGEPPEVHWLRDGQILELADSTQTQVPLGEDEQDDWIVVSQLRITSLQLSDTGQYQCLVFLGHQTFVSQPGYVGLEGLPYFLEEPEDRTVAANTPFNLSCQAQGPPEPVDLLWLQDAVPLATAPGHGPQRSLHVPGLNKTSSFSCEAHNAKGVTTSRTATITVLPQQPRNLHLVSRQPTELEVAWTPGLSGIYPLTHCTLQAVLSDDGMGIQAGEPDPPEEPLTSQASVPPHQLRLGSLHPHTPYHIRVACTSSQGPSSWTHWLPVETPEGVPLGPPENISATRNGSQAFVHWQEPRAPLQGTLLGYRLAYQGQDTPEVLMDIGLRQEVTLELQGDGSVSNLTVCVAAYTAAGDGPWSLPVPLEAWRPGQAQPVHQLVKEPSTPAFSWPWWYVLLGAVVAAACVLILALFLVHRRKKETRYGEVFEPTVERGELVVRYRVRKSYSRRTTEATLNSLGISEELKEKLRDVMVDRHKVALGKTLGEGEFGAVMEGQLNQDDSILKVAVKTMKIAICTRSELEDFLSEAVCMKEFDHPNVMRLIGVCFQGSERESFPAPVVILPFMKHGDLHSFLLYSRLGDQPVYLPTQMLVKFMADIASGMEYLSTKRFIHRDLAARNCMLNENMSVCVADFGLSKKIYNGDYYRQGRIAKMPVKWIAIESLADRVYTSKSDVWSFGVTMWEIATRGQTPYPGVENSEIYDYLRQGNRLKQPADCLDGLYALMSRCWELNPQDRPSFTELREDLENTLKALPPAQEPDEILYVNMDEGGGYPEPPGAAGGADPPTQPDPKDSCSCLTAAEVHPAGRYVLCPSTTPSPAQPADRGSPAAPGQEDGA
The experiment can be described thus: Phospho-AKT in-cell Western assay (inhibition of Axl activity). Conditions: Table 1, formula (Ia); Hela cells, Axl antibody cross-linking stimulation, phospho-Akt chemiluminescence normalized to relative cell number. Type of experiment: cell-based. As for the experimental part:
The compounds of the invention were tested in the following assay for their ability to inhibit Axl activity.
Phospho-AKT in-Cell Western Assay
• Cell culture plate: 96 well assay plate (Corning 3610), white, clear bottom, tissue-culture treated. • Cells: Hela cells. • Starvation medium: For Axl stimulation: 0.5% FCS (fetal calf serum) in DMEM, plus Axl/Fc (extracellular domain of AXL fused to immunoglobulin Fc region) (R&D, 154-AL) 500 ng/mL. • For EGF (epidermal growth factor) stimulation: 0.5% FCS in DMEM (Dulbecco's modified Eagles medium). • Poly-L-Lysine 0.01% solution (the working solution): 10 μg/ml, dilute In PBS (phosphate buffered saline). • Axl antibody cross-linking: • 1st: Mouse anti-Axl (R&D, MAB154). • 2nd: Biotin-SP-conjugated AffiniPure goat anti-mouse IgG (H+L) (Jackson ImmunoResearch #115-065-003). • Fixing buffer: 4% formaldehyde in PBS. • Wash buffer: 0.1% TritonX-100 in PBS. • Quenching buffer: 3% H2O2, 0.1% Azide in wash buffer, Azide and hydrogen peroxide 1(H2O2) are added fresh. • Blocking buffer: 5% BSA in TBST (tris buffered saline plus 0.1% Tween 20). • Primary antibody: Rabbit anti-human Phospho-Akt antibody (Cell Signaling 9271): 1×250 diluted in blocking buffer. • Secondary antibody: HRP (horse radish peroxidase)-conjugated Goat anti-Rabbit secondary, stock solution: Jackson ImmunoResearch (Goat anti-Rabbit HRP, #111-035-144) 1:1 diluted in glycerol, store at −20° C. The working solution: 1×2000 dilution of stock in blocking buffer. • Chemiluminescent working solution (Pierce, 37030): SuperSignal ELISA (enzyme linked immunosorbant assay) Pico Chemiluminescent substrate. • Crystal Violet solution: Stock: 2.5% Crystal violet in methanol, filtered and kept at ambient temperature. The working solution: dilute the stock 1:20 with PBS immediately before use. • 10% SDS: working solution: 5% SDS (sodium dodecylsulfate), diluted in PBS Methods: Day 1:
A 96 well TC (tissue culture treated) plate was coated with 10 μg/mL poly-L-Lysine at 37° C. for 30 min, washed twice with PBS, and air-dried for 5 minutes before cells were added. Hela cells were seeded at 10,000 cells/well and the cells were starved in 100 μL starvation medium containing Axl/Fc for 24 hrs.
The cells were pre-treated with test compounds by adding 100 μL of 2× test compound to the starvation medium on the cells. The cells were incubated at 37° C. for 1 hr before stimulation.
The cells were stimulated by Axl-antibody cross-linking as follows: A 5×1st/2nd Axl antibody mixture was made (37.5 μg/mL 1st/100 μg/mL 2nd) in starvation medium and nutated at 4° C. with thorough mixing for 1-2 hours for clustering. The resulting mix was warmed to 37° C. 50 μL of 5×Axl 1st/2nd of antibody cluster was added to the cells and the cells were incubated at 37° C. for 5 min.
After 5 minutes stimulation, the plate was flicked to remove medium and the plate was tapped onto paper towels. Formaldehyde (4.0% in PBS, 100 μL) was added to fix the cells and the cells were incubated at ambient temperature for 20 min without shaking.
The cells were washed with a plate washer buffer to remove the formaldehyde solution. The plate was flicked to removed excess wash buffer and tapped onto paper towels. Quenching buffer (100 μL) was added to each well and the cells were incubated at ambient temperature for 20 minutes without shaking.
The cells were washed with a plate washer buffer to remove the quenching buffer. Blocking buffer (100 μL) was added and the cells were incubated at ambient temperature for at least an hour with gentle shaking.
The cells were washed with a plate washer buffer and diluted primary antibody (50 μL) was added to each well (blocking buffer was added to the negative control wells instead). The plates were incubated overnight at 4° C. with gentle shaking.
The wash buffer was removed, diluted secondary antibody (100 μL) was added, and the cells were incubated at ambient temperature for 1 hour with gentle shaking. […]
`CNC(=O)[C@H]1C[C@H]2C[C@H](C2(C)C)[C@@]1(C)Nc1nc(Nc2ccc(Cl)c(N3CCN(C(=O)OC)CC3)c2)ncc1Cl` [Compound 18, (1R,2R,3S,5R)-2-(2-(3-(4-(methoxycarbonyl)piperazin-1-yl)-4-chlorophenylamino)-5-chloropyrimidin-4-ylamino)-N,2,6,6-tetramethylbicyclo[3.1.1]heptane-3-carboxamide]: the IC50 was more than 20000 nM.
Same read-out and setting: then `CN1CCN(c2ccc(Nc3nccc(N[C@@]4(CCO)[C@@H](C(N)=O)C[C@H]5C[C@@H]4C5(C)C)n3)cc2F)CC1` [Compound 19, (1R,2R,3S,5R)-2-(2-(3-fluoro-4-(4-methylpiperazin-1-yl)phenylamino)pyrimidin-4-ylamino)-2-(2-hydroxyethyl)-6,6-dimethylbicyclo[3.1.1]heptane-3-carboxamide], with more than 20000 nM; and `CC1(C)[C@H]2C[C@H](C(N)=O)[C@](C)(Nc3nc(Nc4ccc(OCCN5CCCC5)cc4)ncc3Cl)[C@@H]1C2` [Compound 29, (1R,2R,3S,5R)-2-(5-chloro-2-(4-(2-(pyrrolidin-1-yl)ethoxy)phenylamino)pyrimidin-4-ylamino)-2,6,6-trimethylbicyclo[3.1.1]heptane-3-carboxamide], with less than 1000 nM.
The same measure, in the same setting: as for `CC1(C)[C@H]2C[C@H](C(N)=O)[C@](C)(Nc3nc(Nc4ccc(OCCN5CCCC5)c(F)c4)ncc3Cl)[C@@H]1C2` [Compound 30, (1R,2R,3S,5R)-2-(5-chloro-2-(3-fluoro-4-(2-(pyrrolidin-1-yl)ethoxy)phenylamino)pyrimidin-4-ylamino)-2,6,6-trimethylbicyclo[3.1.1]heptane-3-carboxamide], the figure is less than 1000 nM; as for `CNC(=O)[C@H]1C[C@H]2C[C@H](C2(C)C)[C@@]1(C)Nc1nc(Nc2ccc(N3CCC(N4CCN(C)CC4)CC3)c(F)c2)ncc1Cl` [Compound 31, (1R,2R,3S,5R)-2-(5-chloro-2-(3-fluoro-4-(4-(4-methylpiperazin-1-yl)piperidin-1-yl)phenylamino)pyrimidin-4-ylamino)-N,2,6,6-tetramethylbicyclo[3.1.1]heptane-3-carboxamide], less than 1000 nM; as for `CCN(CC)C1CCN(c2ccc(Nc3ncc(Cl)c(N[C@@]4(C)[C@@H](C(=O)NC)C[C@H]5C[C@@H]4C5(C)C)n3)cc2F)CC1` [Compound 32, (1R,2R,3S,5R)-2-(5-chloro-2-(3-fluoro-4-(4-(diethylamino)piperidin-1-yl)phenylamino)pyrimidin-4-ylamino)-N,2,6,6-tetramethylbicyclo[3.1.1]heptane-3-carboxamide], less than 1000 nM.
As for `CNC(=O)[C@H]1C[C@H]2C[C@H](C2(C)C)[C@@]1(C)Nc1nc(Nc2ccc(OCCN(C)C3CCCC3)cc2)ncc1Cl` [Compound 33, (1R,2R,3S,5R)-2-(5-chloro-2-(4-(2-((cyclopentyl)(methyl)amino)ethoxy)phenylamino)pyrimidin-4-ylamino)-N,2,6,6-tetramethylbicyclo[3.1.1]heptane-3-carboxamide], the IC50 was less than 1000 nM.
On the same count and under the same terms, as for `CNC(=O)[C@H]1C[C@H]2C[C@H](C2(C)C)[C@@]1(C)Nc1nc(Nc2ccc(N3CCC(F)(F)CC3)c(Cl)c2)ncc1F` [Compound 34, (1R,2R,3S,5R)-2-(5-fluoro-2-(3-chloro-4-(4,4-difluoropipendin-1-yl)phenylamino)pyrimidin-4-ylamino)-N,2,6,6-tetramethylbicyclo[3.1.1]heptane-3-carboxamide], the figure is more than 20000 nM.

The same experiment, now with this note: Table 2, formula (Ib); Hela cells, Axl antibody cross-linking stimulation, phospho-Akt chemiluminescence normalized to relative cell number.
Compound `CNC(=O)[C@@H]1C[C@@H]2C[C@@H](C2(C)C)[C@]1(C)Nc1nc(Nc2ccc(N3CCOCC3)cc2)ncc1Cl` [Compound 21, (1S,2S,3R,5S)-2-(5-chloro-2-(4-morpholinophenylamino)pyrimidin-4-ylamino)-N,2,6,6-tetramethylbicyclo[3.1.1]heptane-3-carboxamide] returned an IC50 of 1000 to 10000 nM.
The same measure, in the same setting: then `CNC(=O)[C@@H]1C[C@@H]2C[C@@H](C2(C)C)[C@]1(C)Nc1nc(Nc2ccc(OCCN3CCCC3)cc2)ncc1Cl` [Compound 22, (1S,2S,3R,5S)-2-(5-chloro-2-(4-(2-(pyrrolidin-1-yl)ethoxy)phenylamino)pyrimidin-4-ylamino)-N,2,6,6-tetramethylbicyclo[3.1.1]heptane-3-carboxamide], with more than 20000 nM.
`CNC(=O)[C@@H]1C[C@@H]2C[C@@H](C2(C)C)[C@]1(C)Nc1nc(Nc2ccc(OCCN3CCCC3)c(F)c2)ncc1Cl` [Compound 23, (1S,2S,3R,5S)-2-(5-chloro-2-(3-fluoro-4-(2-(pyrrolidin-1-yl)ethoxy)phenylamino)pyrimidin-4-ylamino)-N,2,6,6-tetramethylbicyclo[3.1.1]heptane-3-carboxamide] came in with an IC50 of 1000 to 10000 nM.

Still in this experiment, the particulars now being: Table 3, formula (Ic); Hela cells, Axl antibody cross-linking stimulation, phospho-Akt chemiluminescence normalized to relative cell number.
Compound `CNC(=O)[C@H]1C[C@H]2C[C@H](C2(C)C)[C@@]1(C)Nc1nc(Nc2ccc3c(c2)OCC(=O)N3)ncc1Cl` [Compound 28, (1R,2R,3S,5R)-2-(5-chloro-2-(3-oxo-3,4-dihydro-2H-benzo[b][1,4]oxazin-7-ylamino)pyrimidin-4-ylamino)-N,2,6,6-tetramethylbicyclo[3.1.1]heptane-3-carboxamide] registered an IC50 of more than 20000 nM.

Staying with this experiment, now noted: Table 4, formula (Id); Hela cells, Axl antibody cross-linking stimulation, phospho-Akt chemiluminescence normalized to relative cell number.
`CNC(=O)[C@H]1C[C@H]2C[C@H](C2(C)C)[C@@]1(C)Nc1nc(Nc2ccc3[nH]ccc3c2)ncc1Cl` [Compound 26, (1R,2R,3S,5R)-2-(2-(1H-indol-5-ylamino)-5-chloropyrimidin-4-ylamino)-N,2,6,6-tetramethylbicyclo[3.1.1]heptane-3-carboxamide] showed an IC50 of 1000 to 10000 nM.
Still for that read-out and setting: then `CNC(=O)[C@H]1C[C@H]2C[C@H](C2(C)C)[C@@]1(C)Nc1nc(Nc2ccc3c(c2)CCN3CCN(C)C)ncc1Cl` [Compound 27, (1R,2R,3S,5R)-2-(5-chloro-2-(1-(2-(dimethylamino)ethyl)indolin-5-ylamino)pyrimidin-4-ylamino)-N,2,6,6-tetramethylbicyclo[3.1.1]heptane-3-carboxamide], with less than 1000 nM.
